# Test results reported in paper PMC6776562, “Inhibition of Rac1-dependent forgetting alleviates memory deficits in animal models of Alzheimer’s disease” (Protein & Cell, 2019).
# Entries after “also recorded” stand apart in the source; their conditions may differ.
# Assays:
# [1] = tested on: APP/PS1 mice; experiment: Morris water maze (MWM) spatial learning in AD mice; assay type: in vivo, mouse
# Protocol: (§1) Mice were treated with EHop-016 (10 mg/kg), CS7170 (50 mg/kg), CS7171 (50 mg/kg), and JKF-034 (40 mg/kg). These drugs were dissolved in saline (0.9% NaCl) containing 0.5% Tween-80 (Sigma P4780). Each mouse received 200 μL of the solution by intragastric administration once per day (administered at 9:00 am). The drug administration was started seven days before the beginning of the Morris water maze (MWM) task and was continued until the end of the assay. All control groups were fed with vehicle solution.
# The MWM test, a classic paradigm used to study spatial reference memory, was performed (Vorhees and Williams, [2006]). Briefly, a circular polypropylene water tank (120 cm in diameter) was filled with opaque water and milk (20 °C ± 1 °C) and a transparent platform (15 cm diameter) was submerged (2 cm below the water surface) in the center of one of the four virtually divided quadrants. Distal cues were fixed on the wall of the tank as spatial references. For the classic training paradigm (Figs. 2 and 6), mice were allowed to find the platform within 60 s and to remain on it for at least 5 s. For the modified training paradigm (Fig. 3A), mice were trained over 5 consecutive sessions with a 1-h intervals within one day. After training, mice were returned to their home cages and the memory of the location of the platform was tested at 6 h after training (Fig. 3C–D). A mouse behavior tracking software (ANY-maze software) was used to record data automatically.
# [2] = target: Rac1 (Mus musculus, UniProt P63001); experiment: Rac1 activity (Rac1-GTP/total Rac1) in hippocampal tissue by PAK-PBD pull-down and Western blot after drug administration; assay type: in vivo, APP/PS1 mice
# Protocol: We first assayed Rac1 activity in hippocampal tissues from AD patients and healthy age-matched, non-demented controls (Detailed information is provided in Table 1). The levels of the guanosine triphosphate (GTP)-bound active form of Rac1 were measured using the p21-binding domain (PBD) pull-down assay. The GTP-bound active form of Rac1 was pulled down through the interactive p21-activated kinase (PAK) fragment using PAK-PBD beads and measured using a Western blot assay (Fig. 1A), as described in previous studies (Shuai et al., [2010]; Liu et al., [2016]) from our laboratory and studies conducted by other research groups (Sander et al., [1998]; Barnes et al., [2008]). The total amount of Rac1 and actin were also evaluated using the Western blot analyses (See MATERIALS AND METHODS). […] Since there were no significant differences in total Rac1 levels between the experimental and control groups (See representative Western blot in all relevant figures), the ratio of Rac1-GTP to total Rac1 was taken as a measure of Rac1 activity. […] Consistent with this observation, Rac1 activity was also elevated in the hippocampus of APP/PS1 mice at different age (Fig. 1D). […] This increase was more pronounced in older flies (Fig. S1F).
# as §1
# The hippocampal tissues from human subjects and mice were harvested and stored in a liquid nitrogen tank for biochemical assay. The tissues were homogenized in cold lysis buffer (Merck-Millipore, 20-168). The insoluble debris were removed after centrifugation at 13,000 rpm (for 10 min, at 4 °C). For GTP-bound Rac/Cdc42, lysates were incubated with GST-tagged PAK (p21-activated kinase)-PBD agarose beads (Cytoskeleton, PAK02) overnight at 4 °C. On the second day, the beads were washed three times with lysis buffer before subjecting them to SDS-PAGE (15%) and transferring them onto nitrocellulose membranes (Millipore, HATF00010). The membranes were incubated with primary antibodies (for Rac1: BD Transduction Laboratories, #610650, 1:2,000 dilution; for Cdc42, Santa Cruz Biotechnology, lot No. sc-8401, 1:500 dilution) overnight at 4 °C and with HRP-conjugated goat anti-mouse IgG (Cell Signaling Technology, #7076) for 1 h at room temperature. Intensities of the detected bands were analyzed using ImageJ software (National Institutes of Health). The total amount of Rac1 in the lysate was detected using a routine Western blot procedure. RhoA-GTP levels were measured by using the Rho-GTP monoclonal antibody (New East, lot No. 26904, Dilution: 1:1,000). Information regarding the other antibodies used is as follows: anti-RhoA (67B9), Cell Signaling, lot No. #2117, dilution: 1:1,000; anti-Actin, Clone C4, Millipore, lot No. #3018859, dilution: 1:2,000; anti-Amyloid 1-42 6E10, BioLegend, lot No. 803001, dilution: 1:1,000; anti-Phospho-PAK1 (Ser144)/PAK2 (Ser141), Cell Signaling, lot No. #2606, dilution: 1:1,000.
# [3] = tested on: LTP in hippocampal slices of APP/PS1 mice; experiment: Long-term potentiation (fEPSP recording) in hippocampal slices; assay type: cell-based, mouse; settings: brain slices of 6-month-old APP/PS1 mice; EHop-016 10 μmol/L in ACSF
# Protocol: Acute 300-μm transverse hippocampal slices were prepared using a vibratome (VTS3000, USA). The slices were maintained at room temperature in a submersion chamber in artificial cerebrospinal fluid (ACSF) containing 125 mmol/L NaCl (Sigma, 71376), 2.5 mmol/L KCl (Sigma, P9541), 2 mmol/L CaCl2 (Sigma, 499609), 1 mmol/L MgCl2 (Sigma, M1028), 1.25 mmol/L NaH2PO4 (Sigma, S3139), 24 mmol/L NaHCO3 (Sigma, S5761) (pH = 7.4), and 15 mmol/L glucose (Sigma, G8270), bubbled with 95% O2 and 5% CO2. Slices were incubated for at least 1 h before removal for experiments. Slices were kept in the MED probe for 1 h for attachment to the 16-channel array (MED-PG515A, Alpha MED Sciences; preheated to 33 °C). Extracellular field excitatory post-synaptic potentials (fEPSPs) in the Schaffer collateral pathway were evoked at 0.025 Hz and recorded in the CA1. The fEPSPs were evoked using a stimulation intensity that elicited a 30% maximal response. Data acquisition and analysis were performed using the multi-electrode MED64 hardware and software package (Panasonic). Additional analyses were performed using custom macros running under Igor Pro. The LTP was induced by one train of theta burst stimulation (TBS) consisting of one epoch of 10 trains of five bursts repeated at 5 Hz and delivered at the same intensity as in the baseline recordings. […]
# [4] = target: Rac1 (Drosophila melanogaster, UniProt P40792); experiment: Rac1 activity in fly whole brain lysate by Western blot; assay type: in vivo; settings: AD flies; EHop-016 100 μmol/L
# Protocol: (§2) Flies were treated with EHop-016 (Yong-Can Biotech). The EHop-016 was dissolved in dimethyl sulfoxide (DMSO; Sigma, D8418-100ML) to make a 10-mmol/L stock solution. This solution was stored at −20 °C for later use. Before administration, 4% (m/v) sucrose solution was used to dilute the stock solution to a concentration of 100 µmol/L (working solution). After the flies were starved for 3 h in empty vials, they were fed with the working solution for 5 h. Feeding was carried out once per day until testing.
# The hippocampal tissues from human subjects and mice were harvested and stored in a liquid nitrogen tank for biochemical assay. The tissues were homogenized in cold lysis buffer (Merck-Millipore, 20-168). The insoluble debris were removed after centrifugation at 13,000 rpm (for 10 min, at 4 °C). For GTP-bound Rac/Cdc42, lysates were incubated with GST-tagged PAK (p21-activated kinase)-PBD agarose beads (Cytoskeleton, PAK02) overnight at 4 °C. […] Intensities of the detected bands were analyzed using ImageJ software (National Institutes of Health). The total amount of Rac1 in the lysate was detected using a routine Western blot procedure. RhoA-GTP levels were measured by using the Rho-GTP monoclonal antibody (New East, lot No. 26904, Dilution: 1:1,000). […]
# [5] = tested on: Aβ42 transgenic flies (elav/Y; UAS-Aβ42/+); experiment: Pavlovian olfactory aversive conditioning in AD flies; assay type: in vivo, Drosophila; settings: AD flies fed 100 μmol/L EHop-016 for 7 days
# Protocol: as §2
# To assess learning and memory, flies underwent classic olfactory aversive conditioning. One- to two-day-old flies were collected and fed with EHop-016 (100 µmol/L) for 7 days. Training and testing were performed at 24 °C with 60% relative humidity. During training, about 100 flies were exposed to an electric shock (unconditioned stimulus [US]) paired with either 3-octanol (>95% purity; Fluka, Sigma-Aldrich) or 4-methylcyclohexanol (>99% purity; Fluka, Sigma-Aldrich) as the conditioned stimulus (CS). Performance was tested using a T-maze apparatus within which 3-octanol and 4-methylcyclohexanol were delivered from opposite arms simultaneously. […] The learning score was calculated as the difference between the number of flies in each arm divided by the sum of flies in both arms immediately after training. Performance index was calculated as the average of two reciprocal tests to avoid odor bias. […]
# [6] = In vitro metabolic stability in mouse liver microsomes; assay type: in vitro ADME
# Protocol: (§3) Measurements of metabolic stability can be performed with liver microsomes, which are known to contain the major drug-metabolizing enzymes and UDP-glucuronosyltransferase (Baranczewski et al., [2006]). The in vitro metabolic stability levels of CS7171 and JKF-034 were measured using human, monkey, and mouse liver microsomes. The metabolic half-time (T1/2) and intrinsic clearance (Clint) were assayed using LC-MS analysis. Ketanserin is a potent, orally effective antagonist of endogenous serotonin. Its pharmacological profile is well studied (Brogden and Sorkin, [1990]). In this study, we used ketanserin as a control. If the T1/2 of the tested compound was 30–120 min, the compound was considered to show moderate metabolism in liver microsomes. If the T1/2 value was less than 30 min, the compound was considered to be susceptible to metabolism in liver microsomes.
# [7] = In vitro metabolic stability in monkey liver microsomes; assay type: in vitro ADME
# Protocol: as §3
# [8] = In vitro metabolic stability in human liver microsomes; assay type: in vitro ADME
# Protocol: as §3
# [9] = In vitro blood-brain barrier permeability assay; assay type: in vitro ADME; settings: dog, 37 °C, MDR-MDCK
# Protocol: The MDR-MDCK cell line can be used as a fast blood-brain barrier (BBB) model to aid drug discovery (Wang et al., [2005]). In this study, the MDR-MDCK cell line was used to evaluate the permeability coefficients of CS7171 and JKF-034. Briefly, CS7171 and JKF-034 were prepared to final concentrations of 5 μmol/L. The cells were dosed on the basolateral side (B-A) and apical side (A-B) and incubated at 37 °C for 90 min. Each test was performed in duplicate. The apparent permeability coefficient, Papp, was calculated using the following formula: Papp=VA/Area×Time×(drugacceptor,90-min/drugdonor,0-min×Dilution Factor
# VA is the volume in the acceptor well, Area is the surface area of the membrane, Time is the total transport time in seconds, [drug]donor, 0-min is the donor drug concentration measured at 0 min; [drug]acceptor, 90-min is the acceptor drug concentration measured at 90 min; dilution factor is the degree of dilution of the donor sample before loading to LC-MS/MS.
# [10] = tested on: Rac1 in HEK-293 cells; experiment: Rac1 activation in cultured cells detected by G-LISA; assay type: cell-based; settings: 10 μg/mL Aβ42 oligomers in culture medium for 2 h
# Protocol: Synthetic wide-type Aβ42 (purchased from AnaSpec) was initially dissolved in hexafluoroisopropanol (Sigma) to 5 mg/mL for subpackaging. Hexafluoroisopropanol was removed by air drying to obtain an Aβ42 peptide film, which was stored at −80 °C. Then, 24 h before the experiment, the peptide film was first re-suspended in DMSO to a concentration of 12.5 mg/mL and then diluted with Dulbecco’s Modified Eagle Medium (DMEM)/F-12 (phenol red-free; Invitrogen) to a final concentration of 500 μg/mL. The HEK-293 cells were cultured in DMEM containing 10% fetal bovine serum (FBS) at 37 °C with 5% CO2. For oligomer treatment, cells were washed with fresh medium and incubated with 10 μg/mL Aβ42 oligomers for 2 h. Cells were washed twice with PBS before they are collected for Rac1 activity detection by G-LISA (BK128, Cytoskeleton) in accordance with the manufacturer’s protocol.
# [11] = APP/PS1 mice (eight-month-old), oral CS7171 50 mg/kg, CS7170 50 mg/kg, JKF-034 40 mg/kg once per day
molecule,measurement,setting,value
COc1cc(C=C2C(=O)NN(c3ccc(Cl)c(Cl)c3)C2=O)ccc1O [CS7170],MWM learning deficit / spatial memory,[1]; [11],not
same,hippocampal Rac1 activity (Rac1-GTP/total Rac1),[2]; [11],not and unable to inhibit Rac1 activity
CCn1c2ccccc2c2cc(Nc3ccnc(NCCCN4CCOCC4)n3)ccc21 [EHop-016],LTP maintenance (fast decay after TBS),[3],The fast decay was rescued; also recorded: attenuated
same,MWM escape latency / learning deficit,"[1]; 9-month-old APP/PS1 mice, EHop-016 10 mg/kg, versus vehicle-treated AD mice, 10 mg/kg",took less time to locate the hidden platform; also recorded: did not significantly differ from that of WT mice; also recorded: mitigated the learning deficit
same,total Rac1 expression in hippocampal tissues,"[2]; 9-month-old AD mice, EHop-016 10 mg/kg",without changing total Rac1 expression
same,Rac1 activity (Rac1-GTP/Total Rac1) in hippocampal tissues,"[2]; 9-month-old AD mice, EHop-016 10 mg/kg, intragastric once per day, 10 days, 10 mg/kg",significantly inhibited Rac1 activity; also recorded: inhibition of Rac1 activity
same,Rac1 activity in whole brain lysis,[4],reduced Rac1 activity; also recorded: inhibition of Rac1 activity
same,total Rac1 expression,[4],without changing the total Rac1 expression
same,learning defect in aversive olfactory conditioning,[5],significantly rescued the learning defects; also recorded: rescued the learning defect
"O=C(c1ccc(F)cc1)C1CCN(CCn2c(=O)[nH]c3ccccc3c2=O)CC1 [Ketanserin, reference compound]",CLint scaled,[6],18.7 L/h/kg
same,half-life,[6],17.5 min
same,CLint scaled,[7],6.66 L/h/kg
same,half-life,[7],18.3 min
same,CLint scaled,[8],2.37 L/h/kg
same,half-life,[8],44.1 min
"COCCc1ccc(OCC(O)CNC(C)C)cc1 (stereo not drawn) [Metoprolol, reference compound]","Papp A→B at 90 min, 5 μmol/L","[9]; MDCK-MDR1, A-B",406 nm/s
same,"Papp B→A at 90 min, 5 μmol/L","[9]; MDCK-MDR1, B-A",286 nm/s
Amyloid-beta 42 [Aβ42],Rac1 activity in HEK-293 cells,[10],capable of stimulating Rac1 activity
